Measured values taken from US9815846B2 (Merck Sharp & Dohme Corp., priority 2014, dated 2017).

What follows are compounds tested against human TrkA receptor (Homo sapiens (Human), UniProt P04629) (assay: DiscoverX PathHunter TrkA functional assay (NGF-stimulated U2OS cells)). Details: U2OS cells expressing human TrkA-PK, Shc1-EA and p75NTR; compound 1 h, then NGF at ~80% of maximal response for 3 h; luminescence.
Assay type: cell-based

human TrkA receptor, sequence (P04629 33-796): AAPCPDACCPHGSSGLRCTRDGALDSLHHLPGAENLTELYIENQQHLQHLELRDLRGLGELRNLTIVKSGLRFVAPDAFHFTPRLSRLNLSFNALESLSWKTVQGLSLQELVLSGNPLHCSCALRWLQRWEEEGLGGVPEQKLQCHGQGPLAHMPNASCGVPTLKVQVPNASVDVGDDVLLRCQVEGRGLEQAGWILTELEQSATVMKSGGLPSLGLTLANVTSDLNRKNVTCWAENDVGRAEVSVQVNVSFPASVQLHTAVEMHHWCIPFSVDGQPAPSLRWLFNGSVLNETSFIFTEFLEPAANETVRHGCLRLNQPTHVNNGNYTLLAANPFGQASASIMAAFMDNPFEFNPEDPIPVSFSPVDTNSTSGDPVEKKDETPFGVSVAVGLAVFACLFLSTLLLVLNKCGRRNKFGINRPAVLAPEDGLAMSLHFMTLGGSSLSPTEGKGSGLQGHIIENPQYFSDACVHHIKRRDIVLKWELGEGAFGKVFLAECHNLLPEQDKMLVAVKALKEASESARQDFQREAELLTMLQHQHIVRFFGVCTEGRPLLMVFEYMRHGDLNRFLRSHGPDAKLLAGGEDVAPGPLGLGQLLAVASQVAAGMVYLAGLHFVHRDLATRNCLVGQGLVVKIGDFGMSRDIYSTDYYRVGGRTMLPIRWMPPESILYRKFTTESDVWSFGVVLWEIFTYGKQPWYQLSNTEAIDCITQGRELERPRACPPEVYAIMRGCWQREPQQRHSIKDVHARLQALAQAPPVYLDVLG

IC50 [nM] | SMILES
2.6 | Cn1ccc(-c2cc(C(=O)Nc3cnc(CC(=O)N[C@H]4C[C@@H](O)C4)nc3-c3ccccc3)c(F)cc2C(F)(F)F)n1 [Example 109, 2-fluoro-N-(2-(2-(((1s,3s)-3-hydroxycyclobutyl)amino)-2-oxoethyl)-4-phenylpyrimidin-5-yl)-5-(1-methyl-1H-pyrazol-3-yl)-4-(trifluoromethyl)benzamide]
0.59 | NC(=O)c1cnc(-c2cnc(-c3ccccc3)c(NC(=O)c3cc(-c4ncccn4)c(C(F)(F)F)cc3F)c2)nc1 [Example 169, 2-(5-(2-fluoro-5-(pyrimidin-2-yl)-4-(trifluoromethyl)benzamido)-6-phenylpyridin-3-yl)pyrimidine-5-carboxamide]
3.6 | Cn1ccc(-c2cc(C(=O)Nc3cnc(CNC(=O)CO)nc3-c3ccccc3)ccc2C(F)(F)F)n1 [Example 50, N-(2-((2-hydroxyacetamido)methyl)-4-phenylpyrimidin-5-yl)-3-(1-methyl-1H-pyrazol-3-yl)-4-(trifluoromethyl)benzamide]
